From patent US12595517B2, “Method to treat and stratify a patient suffering from a cancer” (INSERM (INSTITUT NATIONAL DE LA SANTÉ ET DE LA RECHERCHE …, priority 2020, dated 2026)

Assays:
[1] = test system: Bim; test: Bim expression (in-cell ELISA, RT-qPCR) in A172 cells; assay type: cell-based, human
Method: In cell ELISA were performed using the Bim Colorimetric Cell-Based ELISA kit (Aviva Systems Biology, France) according to the manufacturer's instructions. Briefly, 5 000 cells were seeded in 96-well plate to be exposed or not to indicated exosome or miRNA. After that, cells were treated with a fixing solution (4% of paraformaldehyde solution) for 10 min at room temperature. Primary antibody was incubated overnight at 4° C. Adequate HRP-conjugated secondary antibodies were incubated for 1 hour at room temperature. Detection was performed at 450 nm.
After washes, cells in each well were incubated with crystal violet solution for 5 min at room temperature, according to the manufacturer's instructions. Absorbance was read at 595 nm, and used to normalize the “Bim signal”.
RNA extract is performed using RNeasy Mini QIAcube Kit and QIAcube (Qiagen, France). RT-qPCRs are performed using QuantiTect Reverse Transcription Kit, Rotor-Gene SYBR Green PCR Kit, QuantiTect Primer Assays and Rotor-Gene Q as real-time thermocycler (Qiagen, France). Reference gene RPLPO was used, with the 2-ΔΔCt relative quantification method.

[2] = test system: 3′UTR/Bim plasmid; test: Luciferase 3'UTR reporter assay; assay type: cell-based, human; settings: A172
Method: Cells were seeded in 24-well plates and were transfected with the indicated firefly luciferase constructs together with an SV40-renilla control vector. Lysates were prepared at […], and luciferase activity was measured using the Dual Luciferase Reporter Assay system (Promega, France) and a luminometer (MicroLumat Plus, EG&G Berthold, France).

[3] = test system: A549 (a lung cancer cell line); test: Chemotherapy-induced cell death, PARP and Caspase-3 cleavage in A549; assay type: cell-based, human; settings: A549 exposed to Exo/αPD1; CIS 5 μM, ABT263 15 μM
Method: Colorimetric Cell Cytotoxicity Assay Kit (Abcam, France) was used to estimate the cell viability. Briefly, cells were seeded in 96-well plate. After the realization of manufacturer's instruction, absorbance was read at 570 and 605 nm using Victor™x3 spectrophotometer (Perkin-Elmer, France).
Levels of cleaved caspase-3 and cleaved PARP are considered as both biomarkers of apoptosis. The measurement of these two parameters was performed using the Human Cleaved PARP1 and Human Cleaved Caspase-3 ELISA Kits (Abcam, France) according to the manufacturer's protocol.
In view of the data described above, associating the ineffectiveness of cisplatin+αPD1 therapy with exomiR-4315-induced Bim down-expression, we then studied the effect of a “Bim/BH3 mimetic drug” such as ABT263 on the resistance to cisplatin of A549 cells exposed to Exo/αPD1. A549 lung cancer cells were then exposed to Exo/αPD1 and Exo prior to the addition of cisplatin (CIS, 5 μM) and/or ABT263 (15 μM). ABT263 abrogated the Exo/αPD1-induced resistance to CIS (FIG. 4A).

[4] = test system: A549-induced tumors; test: A549-inoculated xenograft mice, tumor volume; assay type: in vivo
Method: The experimental procedures using animals were in accordance with Institutional Animal Care guidelines and the French National Committee of Ethics. In addition, all experiments were conducted according to the Regulations for Animal Experimentation at the “Plate-forme […] the “Institut de Recherche en Santé de l'Université de Nantes (IRS-15N)” and approved by the French National Committee of Ethics. Cultured A549 cells were harvested by trypsinization, washed and resuspended in saline buffer. Cell suspensions were injected subcutaneously (s.c.) into the flanks of 7-/8-week-old mice (Janvier, France). Tumor volume based on caliper measurements was calculated using the modified ellipsoidal formula (Tumor volume=1⁄2(length×width2)).

Compound: 5′CCGCUUUCUGAGCUGGAC (miScript mimic, further chemistry not given here) [mimic miR-4315, Syn-hsa-miR-4315 miScript miRNA Mimic]
- Bim expression (protein and mRNA levels) [1]: down-regulated
- luciferase activity associated with the 3′UTR/Bim plasmid [2]: decreased

Compound: CC1(C)CCC(c2ccc(Cl)cc2)=C(CN2CCN(c3ccc(C(=O)NS(=O)(=O)c4ccc(N[C@H](CCN5CCOCC5)CSc5ccccc5)c(S(=O)(=O)C(F)(F)F)c4)cc3)CC2)C1 [ABT263, navitoclax]
- Exo/αPD1-induced resistance to CIS [3]: abrogated
- deleterious effect of Exo/αPD1 on the CIS-resistance of cancer cells ([4]; A549 xenograft mice): suppressed

Compound: N.N.[Cl][Pt][Cl] [CIS, cisplatin]
- volume of A549-induced tumors ([4]; xenograft mice): decreased
